How the values were obtained:
rat NaP2b (SLC34A2) = biological target: T1, rat NaP2b (SLC34A2) (Rattus norvegicus, UniProt Q9JJ09); test: Inhibition of NaP2b-mediated Pi (33P) uptake in transfected HEK293 cells, rat NaP2b; format: cell-based; settings: 33P Pi uptake, 0.1 mM phosphate, value given as pIC50 range
T1 construct: host or cells: HEK293
T1 sequence (Q9JJ09 1-695): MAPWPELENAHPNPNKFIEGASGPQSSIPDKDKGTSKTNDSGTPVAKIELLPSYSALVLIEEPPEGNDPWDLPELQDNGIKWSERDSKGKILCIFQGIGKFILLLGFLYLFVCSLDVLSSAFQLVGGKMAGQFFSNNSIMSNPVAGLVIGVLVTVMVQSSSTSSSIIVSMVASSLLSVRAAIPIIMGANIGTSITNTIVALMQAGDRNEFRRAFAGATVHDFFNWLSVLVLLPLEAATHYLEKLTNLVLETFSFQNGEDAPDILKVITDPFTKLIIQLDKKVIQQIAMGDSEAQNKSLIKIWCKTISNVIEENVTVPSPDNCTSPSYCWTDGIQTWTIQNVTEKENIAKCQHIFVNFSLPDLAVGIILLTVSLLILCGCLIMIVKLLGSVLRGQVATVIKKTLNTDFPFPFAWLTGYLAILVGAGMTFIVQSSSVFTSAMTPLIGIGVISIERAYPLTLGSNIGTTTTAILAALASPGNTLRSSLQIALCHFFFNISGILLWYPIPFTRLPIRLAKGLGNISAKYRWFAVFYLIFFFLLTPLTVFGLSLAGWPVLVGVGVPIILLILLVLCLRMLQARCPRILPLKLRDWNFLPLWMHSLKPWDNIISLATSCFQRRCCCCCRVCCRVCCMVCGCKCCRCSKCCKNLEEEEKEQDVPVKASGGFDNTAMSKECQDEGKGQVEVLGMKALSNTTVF
In short: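 The cells transiently expressed NaP2b after Lipofectamine transfection. Each compound was run in duplicate over twelve concentrations, 0.1 nM–30 uM.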

[1] = Stability of compounds in simulated gastric fluid (SGF); format: in vitro ADME; settings: simulated gastric fluid (3 mg/mL pepsin), incubation time 6 hr, relative to t=0
Description: (§1) Test compounds were incubated at […] in simulated gastric fluid (SGF; standard USP solution with 3 mg/mL pepsin) or simulated intestinal fluid (SIF; standard USP solution with 3 mg/mL pancreatin) for 3 hr or 6 hr. HPLC-UV or HPLC-MS were used to determine test compound levels using peak area %. Results (Table 14) were reported as the percentage of test compound remaining after incubation in a given condition relative to test compound present at t=0 in the same condition.

[2] = Stability of compounds in simulated intestinal fluid (SIF); format: in vitro ADME; settings: simulated intestinal fluid (3 mg/mL pancreatin), incubation time 6 hr, relative to t=0
Description: as §1

[3] = Determination of compound Cmax and AUC after oral gavage (plasma LC-MS/MS); format: in vivo, Sprague-Dawley rats; settings: Sprague-Dawley, rat, plasma, po, Structure (I) examples, Table 15, actual oral dose 3-15 mg/kg, plasma 0.5-4 h
Description: (§2) Sprague-Dawley rats were orally gavaged with test article at a nominal dose of 2.5 or 10 mg/kg and blood was collected at 0.5, 1, 2 and 4 h. Blood samples were processed to plasma using K2EDTA as an anticoaglulant. Plasma samples were treated with acetonitrile containing an internal standard, precipitated proteins removed by centrifugation. Supernatants were analyzed by LC-MS/MS and compound concentrations were determined by interpolation from a standard curve prepared in plasma. All compounds were orally dosed at the dosage shown, and pharmacokinetic parameters determined.
as §2, with “interpolated” for “interpolation”
as §2, with “interpolated” for “interpolation”

Row | Structure (SMILES) | IC50 (rat NaP2b (SLC34A2)) | % remaining, SGF [1] | % remaining, SIF [2] | AUC [3] | Cmax [3]
1 | CCN(CC)c1ccc(NC(=O)c2cccc(C(=O)N(C)CCN3CCOCC3)c2)c(-c2cc(C(=O)N[C@H]3CCCc4ccccc43)ccn2)c1 [Example 131, (S)—N^1-(4-(diethylamino)-2-(4-((1,2,3,4-tetrahydronaphthalen-1-yl)carbamoyl)pyridin-2-yl)phenyl)-N^3-methyl-N^3-(2-morpholinoethyl)isophthalamide] | < 1000 nM | >80% | >80% | < 50 ng·h/mL | < 30 ng/mL
2 | O=C(CCOCCOCCOCCOCCSCc1cccc(C(=O)Nc2ccc(N3CCCCC3)cc2-c2cc(C(=O)NCc3cccc(C(F)(F)F)c3)ccn2)c1)NCCOCCOCCOCCOCCOCCOCCOCCO [Example 149, 2-(2-(3-(41-hydroxy-17-oxo-5,8,11,14,21,24,27,30,33,36,39-undecaoxa-2-thia-18-azahentetracontyl)benzamido)-5-(piperidin-1-yl)phenyl)-N-(3-(trifluoromethyl)benzyl)isonicotinamide] | 1000 to 7940 nM | >80% | >80% | < 10 ng·h/mL | < 10 ng/mL
3 | CN(CCN1CCOCC1)C(=O)CCOCCOCCOCCOCCSCc1cccc(C(=O)Nc2ccc(N3CCCCC3)cc2-c2cc(C(=O)NCc3cccc(C(F)(F)F)c3)ccn2)c1 [Example 150, 2-(2-(3-(18-methyl-20-morpholino-17-oxo-5,8,11,14-tetraoxa-2-thia-18-azaicosyl)benzamido)-5-(piperidin-1-yl)phenyl)-N-(3-(trifluoromethyl)benzyl)isonicotinamide] | 10000 to 31600 nM | >80% | >80% | < 10 ng·h/mL | < 10 ng/mL
4 | O=C(NCc1cccc(C(F)(F)F)c1)c1ccnc(-c2cc(N3CCCCC3)ccc2NC(=O)c2cccc(CSCCOCCOCCOCCOCCC(=O)N(CCO)CCO)c2)c1 [Example 151, 2-(2-(3-(20-hydroxy-18-(2-hydroxyethyl)-17-oxo-5,8,11,14-tetraoxa-2-thia-18-azaicosyl)benzamido)-5-(piperidin-1-yl)phenyl)-N-(3-(trifluoromethyl)benzyl)isonicotinamide] | 1000 to 7940 nM | >80% | 40-60% | < 10 ng·h/mL | < 10 ng/mL
5 | CCN(CC)CCN(C)C(=O)CCOCCOCCOCCOCCSCc1cccc(C(=O)Nc2ccc(N3CCCCC3)cc2-c2cc(C(=O)NCc3cccc(C(F)(F)F)c3)ccn2)c1 [Example 152, 2-(2-(3-(21-ethyl-18-methyl-17-oxo-5,8,11,14-tetraoxa-2-thia-18,21-diazatricosyl)benzamido)-5-(piperidin-1-yl)phenyl)-N-(3-(trifluoromethyl)benzyl)isonicotinamide] | 1000 to 7940 nM | >80% | >80% | < 10 ng·h/mL | < 10 ng/mL
6 | CCN(CC)c1ccc(NC(=O)c2cccc(CSCCOCCOCCOCCOCCC(=O)O)c2)c(-c2cc(C(=O)N[C@H]3CCCc4ccccc43)ccn2)c1 [Example 157, (S)-1-(3-(4-(diethylamino)-2-(4-(1,2,3,4-tetrahydronaphthalen-1-ylcarbamoyl)pyridin-2-yl)phenylcarbamoyl)phenyl)-5,8,11,14-tetraoxa-2-thiaheptadecan-17-oic acid] | < 1000 nM | >80% | >80% | < 10 ng·h/mL | < 10 ng/mL
7 | CCN(CC)c1ccc(NC(=O)c2cccc(CSCCOCCOCCOCCOCCC(=O)NCCOCCOCCOCCOCCOCCOCCOCCOC)c2)c(-c2cc(C(=O)N[C@H]3CCCc4ccccc43)ccn2)c1 [Example 157.1, (S)-2-(5-(diethylamino)-2-(3-(27-oxo-2,5,8,11,14,17,20,23,30,33,36,39-dodecaoxa-42-thia-26-azatritetracontan-43-yl)benzamido)phenyl)-N-(1,2,3,4-tetrahydronaphthalen-1-yl)isonicotinamide] | 1000 to 7940 nM | >80% | >80% | < 30 ng·h/mL | < 10 ng/mL
8 | CN(CCOCCOCCOCCC(=O)O)C(=O)Cc1cccc(SCc2cccc(C(=O)Nc3ccc(N4CCCCC4)cc3-c3cc(C(=O)N[C@H]4CCCc5ccccc54)ccn3)c2)c1 [Example 235, (S)-3-methyl-2-oxo-1-(3-(3-(4-(piperidin-1-yl)-2-(4-(1,2,3,4-tetrahydronaphthalen-1-ylcarbamoyl)pyridin-2-yl)phenylcarbamoyl)benzylthio)phenyl)-6,9,12-trioxa-3-azapentadecan-15-oic acid] | < 1000 nM | >80% | >80% |  | 

More lines, now with the values ahead:

Row | IC50 (rat NaP2b (SLC34A2)) | % remaining, SGF [1] | % remaining, SIF [2] | AUC [3] | Cmax [3] | Structure (SMILES)
9 | 1000 to 7940 nM | >80% | 60-80% | < 10 ng·h/mL | < 10 ng/mL | O=C(CCOCCOCCOCCOCCSCc1cccc(C(=O)Nc2ccc(N3CCCCC3)cc2-c2cc(C(=O)NCc3cccc(C(F)(F)F)c3)ccn2)c1)NCCN1CCOCC1 [Example 146, 2-(2-(3-(20-morpholino-17-oxo-5,8,11,14-tetraoxa-2-thia-18-azaicosyl)benzamido)-5-(piperidin-1-yl)phenyl)-N-(3-(trifluoromethyl)benzyl)isonicotinamide]
10 | 1000 to 7940 nM | >80% | >80% | < 10 ng·h/mL | < 10 ng/mL | O=C(NCc1cccc(C(F)(F)F)c1)c1ccnc(-c2cc(N3CCCCC3)ccc2NC(=O)c2cccc(CSCCOCCOCCOCCOCCC(=O)N3CCN(CCOCCO)CC3)c2)c1 [Example 147]
11 | 1000 to 7940 nM | >80% | >80% | < 10 ng·h/mL | < 10 ng/mL | COCCOCCOCCOCCOCCOCCOCCOCCNC(=O)CCOCCOCCOCCOCCSCc1cccc(C(=O)Nc2ccc(N3CCCCC3)cc2-c2cc(C(=O)NCc3cccc(C(F)(F)F)c3)ccn2)c1 [Example 148, 2-(2-(3-(27-oxo-2,5,8,11,14,17,20,23,30,33,36,39-dodecaoxa-42-thia-26-azatritetracontan-43-yl)benzamido)-5-(piperidin-1-yl)phenyl)-N-(3-(trifluoromethyl)benzyl)isonicotinamide]
12 | 1000 to 7940 nM | >80% | >80% | < 30 ng·h/mL | < 10 ng/mL | CCN(CC)c1ccc(NC(=O)c2cccc(CSCCOCCOCCOCCOCCC(=O)NCCOCCOCCOCCOCCOCCOCCOCCOC)c2)c(-c2cc(C(=O)NCc3cccc(C(F)(F)F)c3)ccn2)c1 [Example 165, 2-(5-(diethylamino)-2-(3-(27-oxo-2,5,8,11,14,17,20,23,30,33,36,39-dodecaoxa-42-thia-26-azatritetracontan-43-yl)benzamido)phenyl)-N-(3-(trifluoromethyl)benzyl)isonicotinamide]
13 |  | >80% | >80% | < 10 ng·h/mL | < 10 ng/mL | CCN(CC)c1ccc(NC(=O)c2cccc(C(=O)N(C)CCN3CCCN(C(=O)OCCOCCOCCOCCOCCOCCOCCOCCOCCOCCOCCOC)CC3)c2)c(-c2cc(C(=O)N[C@H]3CCCc4ccccc43)ccn2)c1 [Example 199, (S)-2,5,8,11,14,17,20,23,26,29,32-undecaoxatetratriacontan-34-yl 4-(2-(3-((4-(diethylamino)-2-(4-((1,2,3,4-tetrahydronaphthalen-1-yl)carbamoyl)pyridin-2-yl)phenyl)carbamoyl)-N-methylbenzamido)ethyl)-1,4-diazepane-1-carboxylate]
